Tests used:
[1] = target: IMP-1 (Serratia marcescens, UniProt P52699); experiment: Enzyme activity: determination of IC50, fluorescence assay with CCF2-FA substrate; type: biochemical; conditions: enzyme 2 pM, CCF2-FA 1.25 μM, 2 hours at 25° C.; read-out: IMP1 IC50
In short: (§1)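 Enzyme at 1 pM (NDM-1), 2 pM (IMP-1) or 30 pM (VIM-1) was incubated with inhibitor (20 μM to 0.00063 μM) and 1.25 μM CCF2-FA in 100 mM KH2PO4 pH 7, 0.005% Tween-20, 10 μM ZnSO4 for 2 hours at 25° C. Fluorescence was read at ex 405/em 460 nm; IC50 from 4-parameter fit.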

[2] = target: NDM-1 (Klebsiella pneumoniae, UniProt C7C422); experiment: as above; type: biochemical; conditions: enzyme 1 pM, CCF2-FA 1.25 μM, 2 hours at 25° C.; read-out: NDM1 IC50
NDM-1, sequence (C7C422 29-270, looked up, species assumed): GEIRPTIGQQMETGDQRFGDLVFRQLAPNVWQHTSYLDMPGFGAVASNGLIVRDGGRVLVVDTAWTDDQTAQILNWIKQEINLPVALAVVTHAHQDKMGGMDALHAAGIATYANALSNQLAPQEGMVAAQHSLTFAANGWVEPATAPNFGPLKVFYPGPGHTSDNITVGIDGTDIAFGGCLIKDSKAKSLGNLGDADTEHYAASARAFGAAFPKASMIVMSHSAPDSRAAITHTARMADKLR
In short: as §1

[3] = target: VIM-1 (Pseudomonas aeruginosa, UniProt A0A0F7KYQ8); experiment: as above; type: biochemical; conditions: enzyme 30 pM, CCF2-FA 1.25 μM, 2 hours at 25° C.; read-out: VIM1 IC50
In short: as §1

[4] = system: Escherichia coli expressing NDM-1 (CLB30016); experiment: Antibiotic potentiation activity: synergistic concentration (MITC95) with imipenem, growth by OD600; type: cell-based; conditions: 95% inhibition of bacterial growth, strain CLB30016
In short: (§2)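 Colonies from overnight agar plates (35 °C) were suspended in saline and diluted 1:100 into 1.1× CAMHB. Inhibitor (final 200 μM to 0.195 μM) was combined with imipenem at 1 or 4 μg/ml, incubated 22–24 h at 35 °C, and absorbance read; MITC95 is the lowest inhibitor concentration giving 95% growth inhibition.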

[5] = system: Klebsiella pneumoniae expressing VIM-1 (IHMA599644); experiment: as above; type: cell-based; conditions: 95% inhibition of bacterial growth, strain IHMA599644
In short: as §2

[6] = system: Serratia marcescens expressing IMP-1 (CL5741); experiment: as above; type: cell-based; conditions: 95% inhibition of bacterial growth, strain CL5741
In short: as §2

IMP-1, sequence (P52699 19-246, looked up, species assumed): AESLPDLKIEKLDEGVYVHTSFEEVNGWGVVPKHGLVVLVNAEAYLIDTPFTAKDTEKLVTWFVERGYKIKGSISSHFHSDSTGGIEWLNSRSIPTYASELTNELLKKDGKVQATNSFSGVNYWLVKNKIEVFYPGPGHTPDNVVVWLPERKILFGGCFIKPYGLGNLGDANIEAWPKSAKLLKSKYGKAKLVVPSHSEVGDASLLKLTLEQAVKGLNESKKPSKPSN

| SMILES | IC50 [1] [nM] | IC50 [2] [nM] | IC50 [3] [nM] | NDM1 EC30016 MITC95 [4] [µM] | VIM1 KP599644 MITC95 [5] [µM] | IMP1 SM5741 MITC95 [6] [µM] |
| --- | --- | --- | --- | --- | --- | --- |
| CC(C)[C@H](C(=O)O)[C@H](Cc1cnc(N)nc1)c1nnn[nH]1 [Example 128, (2S,3S)-4-(2-aminopyrimidin-5-yl)-2-isopropyl-3-(1H-tetrazol-5-yl)butanoic acid] | 16000 | 150 | 51 | 9.4 | 50 | >200 |
| CCC[C@H](C(=O)O)[C@H](Cc1ccc(NCCO)nc1)c1nnn[nH]1 [Example 129, (S)-2-((S)-2-(6-((2-hydroxyethyl)amino)pyridin-3-yl)-1-(1H-tetrazol-5-yl)ethyl)pentanoic acid] | 830 | 77 | 5.6 | 0.39 | 9.4 | 9.4 |
| CCC[C@H](C(=O)O)[C@H](Cc1ccc(OCCN)nc1)c1nnn[nH]1 [Example 130, (S)-2-((S)-2-(6-(2-aminoethoxy)pyridin-3-yl)-1-(1H-tetrazol-5-yl)ethyl)pentanoic acid] | 8400 | 900 | 8.3 | 4.7 | 18.8 | 50 |
| CCC[C@H](C(=O)O)[C@H](Cc1ccc(Oc2ccc(CN)cc2)nc1)c1nnn[nH]1 [Example 131, (S)-2-((S)-2-(6-(4-(aminomethyl)phenoxy)pyridin-3-yl)-1-(1H-tetrazol-5-yl)ethyl)pentanoic acid] | 200 | 12 | 1.9 | 0.78 | 9.4 | 6.2 |
| CCC[C@H](C(=O)O)[C@H](Cc1ccc(NCc2ccc(O)cc2)nc1)c1nnn[nH]1 [Example 132, (S)-2-((S)-2-(6-((4-hydroxybenzyl)amino)pyridin-3-yl)-1-(1H-tetrazol-5-yl)ethyl)pentanoic acid] | 1500 | 160 | 31 | 9.4 | 25 | 38 |
| CC(C)C[C@H](C(=O)O)[C@H](Cc1ccc2cc(NCCO)cnc2c1)c1nnn[nH]1 [Example 133, (S)-2-((S)-2-(3-((2-hydroxyethyl)amino)quinolin-7-yl)-1-(1H-tetrazol-5-yl)ethyl)-4-methylpentanoic acid] | 79 | 12 | 1.6 | 25 | 75 | 6.2 |
| CC(C)C[C@H](C(=O)O)[C@H](Cc1ccc(NCCO)nc1)c1nnn[nH]1 [Example 134, (S)-2-((S)-2-(6-((2-hydroxyethyl)amino)pyridin-3-yl)-1-(1H-tetrazol-5-yl)ethyl)-4-methylpentanoic acid] | 230 | 88 | 6.6 | 0.78 | 18.8 | 4.7 |
| CC(C)C[C@H](C(=O)O)[C@H](Cc1ccc(OCCN)nc1)c1nnn[nH]1 [Example 135, (S)-2-((S)-2-(6-(2-aminoethoxy)pyridin-3-yl)-1-(1H-tetrazol-5-yl)ethyl)-4-methylpentanoic acid] | 1600 | 490 | 6.1 | 6.2 | 25 | 25 |
| CCC[C@H](C(=O)O)[C@H](Cc1ccc(NCCO)cn1)c1nnn[nH]1 [Example 136, (S)-2-((S)-2-(5-((2-hydroxyethyl)amino)pyridin-2-yl)-1-(1H-tetrazol-5-yl)ethyl)pentanoic acid] | 6800 | 340 | 150 | 1.2 | 18.8 | 100 |
| CC(C)C[C@H](C(=O)O)[C@H](Cc1cnc(NCCO)s1)c1nnn[nH]1 [Example 137, (S)-2-((S)-2-(2-((2-hydroxyethyl)amino)thiazol-5-yl)-1-(1H-tetrazol-5-yl)ethyl)-4-methylpentanoic acid] | 300 | 110 | 3.5 | 6.2 | 37 | 12.5 |
| CC(C)[C@H](C(=O)O)[C@H](Cc1cccc(NCCO)n1)c1nnn[nH]1 [Example 138, (2S,3S)-4-(6-((2-hydroxyethyl)amino)pyridin-2-yl)-2-isopropyl-3-(1H-tetrazol-5-yl)butanoic acid] | > 20000 | 490 | 670 | 3.1 | 75 | >200 |
| CC(C)[C@H](C(=O)O)[C@H](Cc1ccc(NCCO)cn1)c1nnn[nH]1 [Example 139, (2S,3S)-4-(5-((2-hydroxyethyl)amino)pyridin-2-yl)-2-isopropyl-3-(1H-tetrazol-5-yl)butanoic acid] | 1900 | 56 | 34 | 0.39 | 12.5 | 38 |
| CC(C)[C@H](C(=O)O)[C@H](Cc1ccc(NCCN)nc1)c1nnn[nH]1 [Example 140, (2S,3S)-4-(6-((2-aminoethyl)amino)pyridin-3-yl)-2-isopropyl-3-(1H-tetrazol-5-yl)butanoic acid] | > 20000 | 320 | 8.7 | 1.6 | 12.5 | 75 |
| CC(C)[C@H](C(=O)O)[C@H](Cc1ccc(NC(CO)CO)nc1)c1nnn[nH]1 [Example 141, (2S,3S)-4-(6-((1,3-dihydroxypropan-2-yl)amino)pyridin-3-yl)-2-isopropyl-3-(1H-tetrazol-5-yl)butanoic acid] | > 20000 | 3600 | 800 | 12.5 | 150 | >200 |
| CC(C)[C@H](C(=O)O)[C@H](Cc1ccc(OCC(N)CO)nc1)c1nnn[nH]1 (stereo partly drawn) [Example 142, (2S,3S)-4-(6-(2-amino-3-hydroxypropoxy)pyridin-3-yl)-2-isopropyl-3-(1H-tetrazol-5-yl)butanoic acid] | 5000 | 340 | 130 | 3.1 | 25 | 50 |
| CCC[C@H](C(=O)O)[C@H](Cc1ccc(NCc2cc(OC)cc(OC)c2)nc1)c1nnn[nH]1 [Example 144, (S)-2-((S)-2-(6-((3,5-dimethoxybenzyl)amino)pyridin-3-yl)-1-(1H-tetrazol-5-yl)ethyl)pentanoic acid] | 370 | 16 | 15 | 7.8 | 200 | 62 |
| CC(C)C[C@H](C(=O)O)[C@H](Cc1ccc(N2CCNCC2)c(F)c1)c1nn[nH]n1 [Example 146, (S)-2-((S)-2-(3-fluoro-4-(piperazin-1-yl)phenyl)-1-(2H-tetrazol-5-yl)ethyl)-4-methylpentanoic acid] | 100 | 36 | 1.6 | 6.2 | 15.6 | 5.5 |
| CCC[C@H](C(=O)O)[C@H](Cc1ccc2ccc(N)nc2c1)c1nnn[nH]1 [Example 147, (S)-2-((S)-2-(2-aminoquinolin-7-yl)-1-(1H-tetrazol-5-yl)ethyl)pentanoic acid] | 4500 | 110 | 0.85 | 3.1 | 6.2 | 100 |
| CCC[C@H](C(=O)O)[C@H](Cc1ccc2ncc(N)cc2c1)c1nnn[nH]1 [Example 148, 3-amino-6-((2S,3S)-3-carboxy-2-(1H-tetrazol-5-yl)hexyl)quinolin-1-ium] | 400 | 25 | 0.94 | 25 | 25 | 12.5 |
| CCC[C@H](C(=O)O)[C@H](Cc1ccc(NCCS(N)(=O)=O)cn1)c1nnn[nH]1 [Example 149, 2-((2S,3S)-3-carboxy-2-(1H-tetrazol-5-yl)hexyl)-5-((2-sulfamoylethyl)amino)pyridin-1-ium] | 1600 | 170 | 98 | 0.39 | 18.8 | 38 |
| CCC[C@H](C(=O)O)[C@H](Cc1csc(N)n1)c1nnn[nH]1 [Example 150, 4-((2S,3S)-3-carboxy-2-(1H-tetrazol-5-yl)hexyl)thiazol-2-aminium] | > 20000 | 480 | 300 | 1.6 | 25 | >200 |

Reference: patent US9839642B2, “Beta-tetrazolyl-propionic acids as metallo-beta-lactamase inhibitors” (priority 2014, dated 2017)
